Assay results from patent US6451853B1, “Small molecules that elicit a polarized Th1 response and for modulation of cellular immunity” (Dovetail Technologies, Inc, priority 1998, dated 2002).
“And” between values parts separate entries of the source, which are not always exact repeats. Equal values may be shown once. Read-outs that look alike come from different tables or passages of the source.

Experiments:
[1] = system: soluble TNF alpha release from human lymphocytes; assay: Soluble TNF alpha in supernatants by ELISA; details: Media (unstimulated); drugs 20 mM; ELISA standard curve in pg/mL, unit not given
[2] = system: surface TNF alpha on human monocytes; assay: Surface TNF alpha expression on monocytes by FACS (CD14+ cells); type: cell-based; design: TNF alpha from Monocytes, With BT / change with BT versus without BT: unit not given here; details: for TNF alpha from Monocytes, With BT / change with BT versus without BT: 20 mM BT; for surface TNF alpha expression: all drugs 20 mM
Description: The effect of NAC and BT, alone or in combination, on surface TNF alpha expression by stimulated or unstimulated monocytes (prepared from PBM) was examined. […] Table 6. While only a small proportion of T cells from each donor were responsive to the combination NAC/BT, the effect on surface TNF alpha expression in monocytes was significant.

[3] = system: Monocyte Chemokine Message levels; assay: RNase protection assay of monocyte chemokine message levels; type: cell-based, human; details: Media + beta-alethine 20 mM; RPA phosphorimaging normalized on L32
Procedure: Monocyte expression of chemokines was also assessed in beta-alethine-treated cells (Table 3). While IP-10 expression was decreased by beta-alethine, the levels of the chemoattractants MIP-1a and IL-8 were increased slightly. Bacterial infections are contained by an inflammatory response. MIP-1a recruits macrophages, T cells and eosinophils to the infection site, and IL-8 recruits neutrophils. Therefore both of these chemokines are important in fighting pathogen-induced infections.

[4] = system: panel of human T-cell lines; assay: Surface TNF alpha expression on a panel of human T-cell lines; type: cell-based; details: data not shown
CD-1 mice = details: for Mortality: CD-1 mice
[5] = system: Cytokine mRNA from T cells (PBMC); assay: RNase protection assay of cytokine mRNA in PBMC (T cells), with or without PMA/ionomycin; details: for PMA/ionomycin-induced upregulation of TNF alpha message: PMA/ionomycin stimulation
[6] = system: surface TNF alpha on human T cells; assay: Surface TNF alpha expression on T cells by FACS (gating on CD3+ cells); details: for Change in with BT/without BT: 20 mM BT; for % Positive ± SD (T cells expressing high levels of surface TNF alpha) / MFI ± SD: PMA/ionomycin; for surface TNF alpha, overall MFI: With BT 20 mM; for surface TNF alpha level: unstimulated T cells, BT alone 20 mM, single donor
[7] = system: TNF-R I on T cells (PBMCs); assay: TNF receptor I expression on T cells by FACS
in vivo = details: both, CD-1, mouse, iv
HL60 targets = assay: T cell-dependent cytotoxicity toward HL60 targets (MTT reduction assay)
[8] = Media (no stimulation), individual donors/dates
[9] = Stimulation, individual donors/dates
[10] = BT 27 nM, no stimulation, 6 hours
[11] = BT 2.7 uM, no stimulation, 6 hours
[12] = BT 20 mM, no stimulation, 6 hours
[13] = stimulation 1 micromolar Ionomycin and 10 ng/ml PMA, 48 hrs
[14] = stimulation 1 micromolar Ionomycin and 10 ng/ml PMA, individual donors/dates

## NCCC(=O)NCCSSCCNC(=O)CCN [BT, beta-alethine]
[1]
  Soluble TNF: 29
[2]; Media (no stimulation), 48 hrs
  TNF alpha from Monocytes, With BT: 14.22
  change with BT versus without BT: 0.07037
[2]; [8]
  TNF alpha from Monocytes, With BT: 124.26 and 10.53 and 24.06
  change with BT versus without BT: 78.87 and −44.17 and 18.58
[2]; Stimulation, 48 hrs
  TNF alpha from Monocytes, With BT: 34.59
  change with BT versus without BT: −6.107
[2]; [9]
  TNF alpha from Monocytes, With BT: 71.42 and 202.15 and 41.97 and 143.51 and 87.59
  change with BT versus without BT: 11.54 and 249.1 and −52.59 and 126.7 and 127.7
[2]; stimulated monocytes
  surface TNF alpha expression: induced significant surface TNF alpha expression
[2]; unstimulated monocytes
  surface TNF alpha expression: not upregulated
[3]
  IL-8 message level: 11,615,894
  IP-10 message level: 55,214
  MIP-1 alpha message level: 909,291
  MIP-1 beta message level: 554,709
[4]
  surface TNF alpha expression: induced upregulation
CD-1 mice; mouse, in vivo
  gross pathology at necropsy: No gross pathology
CD-1 mice; single bolus intravenous dose 67 mg/kg
  Mortality: 0/2
CD-1 mice; single bolus intravenous dose 333 mg/kg
  Mortality: 1/3
CD-1 mice; single bolus intravenous dose 667 mg/kg
  Mortality: 2/2
[5]; [10]
  % Change GAPDH mRNA: −10.95%
  % Change IFNg mRNA: 21.11%
  % Change LTb mRNA: 27.48%
  % Change TGFb1 mRNA: 26.69%
  % Change TNFa mRNA: 10.04%
  % Change TNFb mRNA: 42.88%
[5]; [11]
  % Change GAPDH mRNA: −4.78%
  % Change IFNg mRNA: 20.17%
  % Change LTb mRNA: 25.70%
  % Change TGFb1 mRNA: 42.15%
  % Change TNFa mRNA: 24.94%
  % Change TNFb mRNA: 220.87%
[5]; [12]
  % Change IFNg mRNA: 109.71% and 94.74% and 139.51%
  % Change IL-1Ra mRNA: 30.84%
  % Change IL-1a mRNA: 9.07%
  % Change IL-1b mRNA: 60.09%
  % Change IL-2 mRNA: 95.02%
  % Change IL-4 mRNA: 135.82%
  % Change IL-5 mRNA: 161.15%
  % Change IL-8 mRNA: 10.65%
  % Change IL-9 mRNA: 22.86%
  % Change IL-13 mRNA: 83.76%
  % Change IL-15 mRNA: 4.88%
  % Change LTN* mRNA: 58.25%
  % Change LTb mRNA: 117.13%
  % Change MIP-1 alpha mRNA: 25.98%
  % Change MIP-1 beta mRNA: −4.79%
  % Change RANTES mRNA: −2.09%
  % Change TGFb1 mRNA: 82.08%
  % Change TNFa mRNA: 168.85%
  % Change TNFb mRNA: 77.91%
[5]; PMA/ionomycin + 20 mM BT (PMA/ionomycin alone 3.61)
  ratio of TNF alpha: TGF beta message (densitometry): 7.12
[5]; 2.7 mM BT, 6 hours
  PMA/ionomycin-induced upregulation of TNF alpha message: maintained
[5]; 20 mM BT, 6 hours
  PMA/ionomycin-induced upregulation of TNF alpha message: further enhanced
[5]; media + 20 mM BT (media alone 0.092)
  ratio of TNF alpha: TGF beta message (densitometry): 1.36
[6]; [13]
  Change in with BT/without BT: 84.527%
  surface TNF alpha, overall MFI: 146.81
[6]; [14]
  Change in with BT/without BT: 45.223% and 66.236% and 49.403% and 71.042% and 4.276% and 68.647% and 152.007% and 27.185% and 104.690% and 325.647%
  surface TNF alpha, overall MFI: 164.48 and 83.65 and 123.87 and 25.93 and 48.53 and 105.59 and 435.04 and 25.17 and 508.43 and 292.59
[6]; Dose 2.7 mM, 16 hours
  % Positive ± SD (T cells expressing high levels of surface TNF alpha): 10.86 ± .92%
  MFI ± SD: 94.52 ± 1.83
[6]; Dose 20 mM, 16 hours
  % Positive ± SD (T cells expressing high levels of surface TNF alpha): 24.25 ± 6.25%
  MFI ± SD: 127.37 ± 12.5
[6]; Dose .0085 mM, 16 hours
  % Positive ± SD (T cells expressing high levels of surface TNF alpha): 4.96 ± .41%
  MFI ± SD: 59.84 ± 4.08
[6]; Dose .027 mM, 16 hours
  % Positive ± SD (T cells expressing high levels of surface TNF alpha): 5.18 ± 1.73%
  MFI ± SD: 63.49 ± .28
[6]; Dose .085 mM, 16 hours
  % Positive ± SD (T cells expressing high levels of surface TNF alpha): 8.4 ± .5%
  MFI ± SD: 74.18 ± 7.98
[6]; Dose .27 mM, 16 hours
  % Positive ± SD (T cells expressing high levels of surface TNF alpha): 7.33 ± .38%
  MFI ± SD: 71.17 ± .77
[6]; Dose .85 mM, 16 hours
  % Positive ± SD (T cells expressing high levels of surface TNF alpha): 9.38 ± 1.57%
  MFI ± SD: 81.93 ± 6.33
[6]; PMA/ionomycin-stimulated cells
  time for which increased surface TNF alpha expression was sustained: over 50 hours
[6]; Pma/iono, 6 hours, 2.7 mM
  surface TNF alpha expression, Time Course: 149
[6]; Pma/iono, 6 hours, each drug 20 mM
  surface TNF alpha expression, Time Course: 112
[6]; Pma/iono, 16 hours, 2.7 mM
  surface TNF alpha expression, Time Course: 179
[6]; Pma/iono, 16 hours, each drug 20 mM
  surface TNF alpha expression, Time Course: 220
[6]; Pma/iono, 24 hours, 2.7 mM
  surface TNF alpha expression, Time Course: 208
[6]; Pma/iono, 24 hours, each drug 20 mM
  surface TNF alpha expression, Time Course: 226
[6]; Pma/iono, 42 hours, 2.7 mM
  surface TNF alpha expression, Time Course: 120
[6]; Pma/iono, 42 hours, each drug 20 mM
  surface TNF alpha expression, Time Course: 247
[6]; Pma/iono, 68 hours, 2.7 mM
  surface TNF alpha expression, Time Course: 64
[6]; Pma/iono, 68 hours, each drug 20 mM
  surface TNF alpha expression, Time Course: 174
[6]; stimulation with 1 ng PMA, individual donors
  surface TNF alpha, overall MFI: 133.13 and 25.41
[6]; 15 hours post-exposure (control 25)
  surface TNF alpha level: 75
[6]; forty hours (control 25)
  surface TNF alpha level: 100
[6]; unstimulated, 6 hours, 2.7 mM
  surface TNF alpha expression, Time Course: 22
[6]; unstimulated, 6 hours, each drug 20 mM
  surface TNF alpha expression, Time Course: 32
[6]; unstimulated, 16 hours, 2.7 mM
  surface TNF alpha expression, Time Course: 42
[6]; unstimulated, 16 hours, each drug 20 mM
  surface TNF alpha expression, Time Course: 76
[6]; unstimulated, 24 hours, 2.7 mM
  surface TNF alpha expression, Time Course: 47
[6]; unstimulated, 24 hours, each drug 20 mM
  surface TNF alpha expression, Time Course: 67
[6]; unstimulated, 42 hours, 2.7 mM
  surface TNF alpha expression, Time Course: 79
[6]; unstimulated, 42 hours, each drug 20 mM
  surface TNF alpha expression, Time Course: 101
[6]; unstimulated, 68 hours, 2.7 mM
  surface TNF alpha expression, Time Course: 30
[6]; unstimulated, 68 hours, each drug 20 mM
  surface TNF alpha expression, Time Course: 41
[7]; PMA/ionomycin + 20 mM BT, 20 hours
  TNF Receptor I Expression (mean fluorescent channel): 329
[7]; PMA/ionomycin + 20 mM BT, 45 hours
  TNF Receptor I Expression (mean fluorescent channel): 548
[7]; PMA/ionomycin + 20 mM BT, 69 hours
  TNF Receptor I Expression (mean fluorescent channel): 489
[7]; unstimulated, 20 mM BT, 20 hours
  TNF Receptor I Expression (mean fluorescent channel): 136
[7]; unstimulated, 20 mM BT, 45 hours
  TNF Receptor I Expression (mean fluorescent channel): 109
[7]; unstimulated, 20 mM BT, 69 hours
  TNF Receptor I Expression (mean fluorescent channel): 96
In vivo
  LD50 at 2 weeks: > 100 mg/kg
HL60 targets; 20 mM BT, PMA/ionomycin stimulated, data not shown
  T cell dependent cytotoxic activity toward HL60 in the presence of neutralizing anti-TNF alpha antibodies: inhibited
HL60 targets; PMA/ionomycin-stimulated T cells, 0.85 mM, 10:1 effector:target, 24 hours
  T cell-Mediated Cytotoxicity, optical density at 540 nm ± SD: .191 ± .003
